In the assay the target is PHGDH (Homo sapiens (Human), UniProt O43175). Description: 3-Phosphoglycerate Dehydrogenase (PHGDH) Fluorescence Intensity Assay, run at two NAD/3-PG ratios: PHGDH_HIGH_NAD/3-PG (250 μM NAD/500 μM 3-PG) and PHGDH_500_NAD/3-PG (500 μM NAD/500 μM 3-PG). The format is biochemical. The settings on record: 250 μM NAD/500 μM 3-PG; read-out: IC50 (PHGDH_HIGH_NAD/3-PG).
PHGDH, sequence (O43175 2-533 limits assumed): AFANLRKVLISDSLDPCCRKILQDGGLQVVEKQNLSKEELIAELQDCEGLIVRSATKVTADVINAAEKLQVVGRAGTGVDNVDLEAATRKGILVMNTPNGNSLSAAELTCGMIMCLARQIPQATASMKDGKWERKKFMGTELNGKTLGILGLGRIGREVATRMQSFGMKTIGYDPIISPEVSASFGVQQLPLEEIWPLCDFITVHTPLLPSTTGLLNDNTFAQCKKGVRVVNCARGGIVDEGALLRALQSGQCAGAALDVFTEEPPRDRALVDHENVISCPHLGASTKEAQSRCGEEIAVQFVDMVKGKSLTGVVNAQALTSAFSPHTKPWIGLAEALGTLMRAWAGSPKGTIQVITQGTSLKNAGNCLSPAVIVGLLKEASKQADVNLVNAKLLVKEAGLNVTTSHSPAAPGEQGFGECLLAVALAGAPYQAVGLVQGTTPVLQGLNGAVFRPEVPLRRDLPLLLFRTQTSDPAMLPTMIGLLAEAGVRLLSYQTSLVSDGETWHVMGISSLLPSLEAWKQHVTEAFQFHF
As to `C#Cc1cc(Cl)c2cc(C(=O)NC(C)c3ccc(S(=O)(=O)CC(=O)OC)cc3)n(C)c2c1` (stereo not shown) [Example 01-008, methyl 2-(4-{1-[(4-chloro-6-ethynyl-1-methyl-1H-indol-2-yl)formamido]ethyl}benzenesulfonyl)acetate], the IC50 worked out at 1690 nM. To `COC(=O)CS(=O)(=O)c1ccc([C@@H](C)NC(=O)c2cc3c4ccccc4c(C)cc3n2C)cc1` [Example 01-010, methyl 2-{4-[(1R)-1-({3,5-dimethyl-3H-benzo[e]indol-2-yl}formamido)ethyl]benzenesulfonyl}acetate] belongs 943 nM; to `Cc1cc(Cl)c2cc(C(=O)N[C@H](C)c3ccc(S(=O)(=O)CC(=O)OC(C)(C)C)cc3)n(C)c2c1` [Example 01-014, tert-butyl 2-{4-[(1R)-1-[(4-chloro-1,6-dimethyl-1H-indol-2-yl)formamido]ethyl]benzenesulfonyl}acetate], 4250 nM; to `COC(=O)CS(=O)(=O)c1ccc([C@@H](C)NC(=O)c2cc3c(Cl)cc(C)c(C)c3n2C)cc1` [Example 01-015, methyl 2-{4-[(1R)-1-[(4-chloro-1,6,7-trimethyl-1H-indol-2-yl)formamido]ethyl]benzenesulfonyl}acetate], 583 nM. For `COC(=O)CS(=O)(=O)c1ccc([C@H](C)NC(=O)c2cc3c(Cl)c(Cl)c(C)cc3n2C)cc1` [Example 01-017, methyl 2-{4-[(1S)-1-[(4,5-dichloro-1,6-dimethyl-1H-indol-2-yl)formamido]ethyl]benzenesulfonyl}acetate], the IC50 was determined as 6720 nM. For `COC(=O)CS(=O)(=O)c1ccc([C@@H](C)NC(=O)c2cc3cc(Cl)ccc3n2C)cc1` [Example 01-019, methyl 2-{4-[(1R)-1-[(5-chloro-1-methyl-1H-indol-2-yl)formamido]ethyl]benzenesulfonyl}acetate], the IC50 is 2480 nM. As to `COC(=O)CS(=O)(=O)c1ccc(C(C)NC(=O)c2cc3c(Cl)cc(I)cc3n2C)cc1` (stereo not shown) [Example 01-020, methyl 2-(4-{1-[(4-chloro-6-iodo-1-methyl-1H-indol-2-yl)formamido]ethyl}benzenesulfonyl)acetate], the IC50 is 1790 nM. To `Cc1cc2c(cc(C(=O)N[C@H](C)c3ccc(S(=O)(=O)CC(=O)O[13CH3])cc3)n2C)c(Cl)c1Cl` [Example 01-022, (^13C)methyl 2-{4-[(1R)-1-[(4,5-dichloro-1,6-dimethyl-1H-indol-2-yl)formamido]ethyl]benzenesulfonyl}acetate] belongs 414 nM; to `Cc1cc(Cl)c2cc(C(=O)N[C@H](C)c3ccc(S(=O)(=O)CC(=O)OC(C)C)cc3)n(C)c2c1` [Example 01-024, propan-2-yl 2-{4-[(1R)-1-[(4-chloro-1,6-dimethyl-1H-indol-2-yl)formamido]ethyl]benzenesulfonyl}acetate], 3550 nM; to `CCOC(=O)CS(=O)(=O)c1ccc([C@@H](C)NC(=O)c2cc3cc(Cl)c(-c4cnn(CCN5CCOCC5)c4)cc3n2C)cc1` [Example 01-025, ethyl 2-{4-[(1R)-1-[(5-chloro-1-methyl-6-{1-[2-(morpholin-4-yl)ethyl]-1H-pyrazol-4-yl}-1H-indol-2-yl)formamido]ethyl]benzenesulfonyl}acetate], 742 nM. To `COC(=O)CS(=O)(=O)c1ccc(CNC(=O)c2cc3c(Cl)cc(C)cc3n2C)cc1` [Example 01-030, methyl 2-(4-{[(4-chloro-1,6-dimethyl-1H-indol-2-yl)formamido]methyl}benzenesulfonyl)acetate] belongs 3390 nM. The figure for `Cc1cc(Cl)c2cc(C(=O)NCc3ccc(S(=O)(=O)CC(=O)OC(C)C)cc3)n(C)c2c1` [Example 01-031, propan-2-yl 2-(4-{[(4-chloro-1,6-dimethyl-1H-indol-2-yl)formamido]methyl}benzenesulfonyl)acetate] is more than 20000 nM; for `CCOC(=O)CS(=O)(=O)c1ccc(CNC(=O)c2cc3c(Cl)cc(C)cc3n2C)cc1` [Example 01-032, ethyl 2-(4-{[(4-chloro-1,6-dimethyl-1H-indol-2-yl)formamido]methyl}benzenesulfonyl)acetate] it is 5940 nM.

Source of the values: patent US11304929B2, “Tosylacetate based compounds and derivatives thereof as PHGDH inhibitors” (priority 2017, dated 2022).
